Experimental data from patent publication US7491827B2, “Aryl sulfonamides useful as inhibitors of chemokine receptor activity” (Millennium Pharmaceuticals, Inc., priority 2003, dated 2009).

target: T1, cloned human CCR8 receptor stably expressed in L1.2 cells (Homo sapiens, UniProt P51685); experiment: whole cell binding screen: inhibition of biotinylated human I309 binding to CCR8 (FMAT 8100 HTS); conditions: L1.2/hCCR8 cells, biotinylated human I-309, 10 point concentration response starting at 10 μM; read-out: Ki of compounds to inhibit I-309 binding to CCR8
T1 construct: expressed in transfected cells
Procedure, shortened: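 Ten-point dilutions, top 10 μM final, were tested for displacing biotin-I309 from hCCR8-transfected L1.2 cells in HEPES-buffered HBSS with BSA and sodium azide, mixing 0.5 h before FMAT 8100 detection. Signals converted to percent inhibition against untreated wells and a 100 nM excess unlabeled I309 control.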

T1 sequence (P51685 whole entry): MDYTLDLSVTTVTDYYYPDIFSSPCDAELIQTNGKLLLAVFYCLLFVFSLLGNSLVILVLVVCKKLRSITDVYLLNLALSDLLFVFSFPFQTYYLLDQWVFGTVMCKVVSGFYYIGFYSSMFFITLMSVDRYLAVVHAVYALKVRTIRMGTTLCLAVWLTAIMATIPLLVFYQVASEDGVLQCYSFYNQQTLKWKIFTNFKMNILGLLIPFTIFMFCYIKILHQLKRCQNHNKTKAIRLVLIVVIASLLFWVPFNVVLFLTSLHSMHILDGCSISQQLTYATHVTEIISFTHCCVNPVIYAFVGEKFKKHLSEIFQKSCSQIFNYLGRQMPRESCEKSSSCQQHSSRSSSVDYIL

`Cc1ccccc1C(=O)Nc1ccc(S(=O)(=O)NC2CCN(C(=O)OC(C)(C)C)C2)c2c1CCC2` (racemic) [Compound H-68, (±)-3-[7-(2-Methyl-benzoylandno)-indane-4-sulfonylamino]-pyrrolidine-1-carboxylic acid tert-butyl ester] and `CCOC(=O)N1CCC(NS(=O)(=O)c2ccc(NC(=O)c3ccccc3C)c3c2CCCC3)CC1` [Compound E-8, 4-[4-(2-Methyl-benzoylamino)-5,6,7,8-tetrahydro-naphthalene-1-sulfonylamino]-piperidine-1-carboxylic acid ethyl ester] cannot be ordered by Ki: less than 500 nM for the first, less than 500 nM for the second.

`Cc1ccccc1C(=O)Nc1ccc(S(=O)(=O)NC2CCCCC2)c2c1CCCC2` [Compound E-9, N-(4-Cyclohexylsulfamoyl-5,6,7,8-tetrahydro-naphthalen-1-yl)-2-methyl-benzamide] and `CCOC(=O)N1CCC(NS(=O)(=O)c2ccc(CNC3CCCCC3)c3ccccc23)CC1` [Compound G-8, 4-(4-Cyclohexylainnomethyl-naphthalene-1-suffonylamino)-piperidine-1-carboxylic acid ethyl ester] cannot be ordered by Ki: less than 500 nM for the first, less than 500 nM for the second.

`O=C(Nc1ccccc1Cl)c1ccc(S(=O)(=O)NC2CCNCC2)c2ccccc12` [Compound F-17, 4-(Piperidin-4-ylsulfamoyl)-naphthalene-1-carboxylic acid (2-chloro-phenyl)-amide] and `CCOC(=O)N1CCC(NS(=O)(=O)c2cccc3c(C(=O)Nc4ccccc4)cccc23)CC1` [Compound H-27, 4-(5-Phenylcarbamoyl-naphthalene-1-sulfonylamino)-piperidine-1-carboxylic acid ethyl ester] cannot be ordered by Ki: less than 30000 nM for the first, less than 1000 nM for the second.
